Results from patent US11174216B2, “Lipids that increase insulin sensitivity and methods of using the same” (Beth Israel Deaconess Medical Center, Inc., priority 2012, dated 2021).

Legend:
Human islets = test: Insulin release from primary human islet cells; assay type: cell-based; settings: 45 min
Description: Two human donors provided cells used in these studies. Donor 1 was a person, 5′0″, 157 lbs, with a BMI of 30.5, HbA1C was 5.8, who died from a stroke, but it was witnessed and they had no downtime. Islets were 80% pure and 95% viable. After arrival, islets were incubated overnight in human islet media before stimulation with glucose in presence and absence of 5-PAHSA (lipid A-5). Note 1 IU of Human Insulin=6 nmol=34.8 μg Insulin.
Human islets were divided into ten groups [100 islets per condition]
A] Low glucose [2.5 mM]; B] High glucose [20.0 mM]; C] Low glucose [2.5 mM]+2.5 μL/mL Methanol; D] High glucose [20.0 mM]+2.5 μL/mL Methanol; E] Low glucose+20 μM Lipid A-5; F] High glucose+20 μM Lipid A-5; G] Low glucose+50 μM Lipid A-5; H] High glucose+50 μM Lipid A-5.
Islets were cultured overnight in Human Islet media and next day incubated with KRB buffer for 4 h prior to glucose stimulation.
Following KRB incubation, islets were stimulated with glucose [2.5 mM & 20.0 mM] in the presence and absence of Lipid A-5 [20 & 50 μM] for 45 min
At the end of glucose stimulation the amount of insulin released [μ IU/mL] into the media was measured using Human Insulin ELISA kit. And the insulin content from the islets were extracted to express insulin released into the media as μ IU/mL/islet content. […]

[1] = tested on: LPS-activated dendritic cells; test: LPS-induced maturation/activation of bone marrow-derived dendritic cells; assay type: cell-based, mouse
Description: Mouse bone marrow cells were flushed from the femurs and tibiae. The red blood cells were eliminated and the cells plated at a density of 1.0×10^6 cells/mL in RBMI complete medium containing 10% FCS plus 20 ng/ml GM-CSF. The medium was replaced on day 4, and the cells were harvested on day 6 to obtain immature DCs. To obtain mature DCs, LPS was added to the cultures at a final concentration of 100 ng/mL on day 6, and the cells were cultured for an additional 24 h, as previously described by Macia, L., et al. Impairment of dendritic cell functionality and steady-state number in obese mice. J Immunol 177, 5997-6006 (2006), which is incorporated by reference in its entirety. […] The activation status of the BMDCs was evaluated by measuring the expression of MHCII and co-stimulatory molecules using Flow Cytometry and by the production of pro-inflammatory cytokines (IL-6, TNF, IL-12 and IL-1β) which was assessed by ELISA. […]
The immature dendritic cells obtained in the day 6 were maturated with LPS in the presence of different concentrations of 9-PAHSA varying between 100 ng/mL to 20 ug/mL. The cells were maturated for 24 h and the maturation status analyzed by cytokine production and co-stimulatory molecules expression.
The cells were analyzed by Multicolor Flow cytometry. […] The cells were analyzed with an LSR II flow cytometer (BD) and FlowJo software. […]

[2] = tested on: FAHFA hydrolysis activity in liver lysate

| Compound | Glucose Stimulated Insulin Secretion (Human islets; human islets from Donor 1, 20 and 50 uM) | Glucose Stimulated Insulin Secretion (Human islets; human islets from Donor 2, 20 uM) | LPS-induced dendritic cell activation (expression of MHCII, CD40, CD80, CD86) ([1]; 100 ng/mL LPS, 24 h, flow cytometry) | IL-12 production ([1]; LPS-activated dendritic cells, ELISA) | hydrolysis of 9-PAHSA to 9-HSA [2] |
| --- | --- | --- | --- | --- | --- |
| CCCCCCCCCCCCCCCC(=O)OC(CCCCCCCCCCCCC)CCCC(=O)O (centres unmarked) [5-PAHSA] | induces Glucose Stimulated Insulin Secretion | induces Glucose Stimulated Insulin Secretion |  |  |  |
| CCCCCCCCCCCCCCCC(=O)OC(CCCCCCCCC)CCCCCCCC(=O)O (centres unmarked) [9-PAHSA, palmitoyl-9-hydroxystearic acid] |  |  | prevents LPS-induced dendritic cell activation in a dose dependent manner | blocks IL-12 production | Substantial 9-HSA production |
